The record followed here is US8648068B2, “Heterocycloalkyl-containing thienopyrimidines for pharmaceutical compositions” (Boehringer Ingelheim International GmbH, priority 2010, dated 2014).

The target in the assay is T1, human Mnk2a (Homo sapiens, UniProt Q9HBH9).
T1 construct: made in house; host or cells: E. coli BL21 (vector pGEX-4T1)
In words: Mnk2a in vitro kinase assay (indirect fluorescence polarization). It is filed as biochemical. The conditions noted are these: GST-Mnk2a pre-activated with ERK2, 20 μM ATP, 30 μM substrate peptide; read-out: MNK2 IC50. The protocol: Inhibitory potency of compounds against Mnk1, Mnk2a and other kinases was assessed with assays based on a format known to those skilled in the art as the indirect (competitive) fluorescence polarization. The assay detection system comprises a small fluorophore-labeled phospho-peptide (termed ligand) bound to a phospho-specific antibody. The product generated by the kinase reaction competes with the ligand for antibody binding. Based on the larger molecular volume of the bound ligand, which results in a lower rotation rate in solution, its emitted light has a higher degree of polarization than the one from the free ligand.
As a source of enzyme, human Mnk1 and human Mnk2a were expressed as GST fusion proteins in E. coli, purified to >80% homogeneity by glutathione affinity chromatography and activated in vitro with pre-activated ERK2. In brief, the open reading frames of human Mnk1 and Mnk2a were amplified from cDNA using the forward/reverse primer pairs
(utilized restriction sites underlined), respectively, and cloned into the BamHI and SalI sites of the vector pGEX-4T1 (Amersham, Sweden, cat. no. 27-4580-01). These constructs allow prokaryotic expression of Mnk1 or Mnk2a as fusion protein with a N-terminal glutathione S-transferase (GST) tag, referred to as GST-Mnk1 or GST-Mnk2a. The following expression and purification procedure was identical for GST-Mnk1 and GST-Mnk2a, referring in general to GST-Mnk, when not distinguishing between the two isoforms. Expression of GST-Mnk was in E. coli BL21 (Merck Biosciences, Germany, cat. no. 69449). Cells were grown in LB-Bouillon (Merck, Germany, cat. no. 1.10285) supplemented with 100 μg/ml ampicillin (Sigma, Germany, cat. no. A9518) at 37° C. When the culture had reached a density corresponding to an A600 of 0.8, an equal volume of ice cold LB/ampicillin was added, the culture transferred to 25° C. and induced for 4 h with 1 mM isopropyl thiogalactoside (IPTG, Roth, Germany, cat. no. 2316.4). Cells harvested by centrifugation were resuspended in 10 ml lysis buffer (50 mM tris(hydroxymethyl)aminomethane hydrochloride (Tris/HCl, Sigma, Germany, cat. no. T5941) pH 7.5, 300 mM sodium chloride (NaCl, Sigma, Germany, cat. no. S7653), 5% (w/v) glycerol (Sigma, Germany, cat. no. G5516), 3 mM DTT dithiotreitol (DTT, Sigma, Germany, cat. no. D9779)) per gram wet weight cell pellet. Lysates were prepared by disruption of cells with a sonifier and subsequent clearing by centrifugation at 38000 g for 45 min at 4° C.
The lysate was applied to a GSTPrep FF 16/10 column (Amersham, Sweden, cat. no. 17-5234-01) equilibrated with lysis buffer. Removal of unbound material was with 3 column volumes (CV) lysis buffer. Elution was with 2 CV of elution buffer (50 mM Tris/HCl pH 7.5, 300 mM NaCl, 5% (w/v) glycerol, 20 mM glutathione (Sigma, Germany, cat. no. G4251)). Peak fractions were pooled and the protein transferred into storage buffer (50 mM Tris/HCl pH 7.5, 200 mM NaCl, 0.1 mM ethylene glycol-bis(2-aminoethylether)-N,N,N′,N′-tetraacetic acid (EGTA, Aldrich, Germany, cat. no. 23, 453-2), 1 mM DTT, 10% (w/v) glycerol, 0.5 M sucrose (Sigma, Germany, cat. no. SO389) by gel filtration on a PD10 desalting column (Amersham, Sweden, cat. no. 17-0851-01). Aliquots were shock frozen in liquid nitrogen and stored at −80° C.
Activation of Mnk1 and Mnk2a was at a concentration of 2.5 μM of either purified GST-Mnk1 or GST-Mnk2a by incubation with 150 nM pre-activated NHis-ERK2 (see ERK2 assay for preparation) and 50 μM adenosine triphosphate (ATP, Sigma, cat. no. A2699) in a buffer comprising 20 mM N-(2-hydroxyethyl)piperazine-N′-(2-ethanesulfonic acid) (HEPES, Fluka, Germany, cat. no 54459)/potassium hydroxide (KOH, Roth, Germany, cat. no 6751.1) pH 7.4, 10 mM magnesium chloride (MgCl2, Sigma, Germany, cat. no. M2670), 0.25 mM DTT, 0.05% (w/v) polyoxyethylene 20 stearylether (Brij 78, Sigma, Germany, cat. no. P4019) (HMDB buffer) for 45 min at 30° C. […]
Background: Polarisation of emitted light reports the rotation of a fluorescent probe.

T1 sequence (Q9HBH9 whole entry): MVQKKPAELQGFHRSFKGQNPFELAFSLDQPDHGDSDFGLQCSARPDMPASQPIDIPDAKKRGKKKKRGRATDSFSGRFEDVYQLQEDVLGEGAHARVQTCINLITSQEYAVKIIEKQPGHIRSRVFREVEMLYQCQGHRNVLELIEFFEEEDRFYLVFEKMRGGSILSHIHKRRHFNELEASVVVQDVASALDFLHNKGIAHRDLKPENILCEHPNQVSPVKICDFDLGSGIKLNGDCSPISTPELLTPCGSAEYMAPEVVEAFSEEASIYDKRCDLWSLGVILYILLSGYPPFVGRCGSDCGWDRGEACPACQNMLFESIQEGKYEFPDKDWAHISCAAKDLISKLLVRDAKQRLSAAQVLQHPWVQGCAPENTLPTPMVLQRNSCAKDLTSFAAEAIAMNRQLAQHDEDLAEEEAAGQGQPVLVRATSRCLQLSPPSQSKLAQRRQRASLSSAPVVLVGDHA

On to `Cc1c(C(=O)NCCCC2CCOC2)sc2ncnc(Nc3ccc(F)cc3OC3CCCNC3)c12` (centres unmarked) [Example 39], for which the IC50 (in general, the concentration needed to halve the response being measured) came out at 0.058 µM.

As for `Cc1c(C(=O)NCC2CCCCC2O)sc2ncnc(Nc3ccc(F)cc3OC3CCCNC3)c12` (centres unmarked) [Example 40], the IC50 is 0.035 µM.

As to `Cc1c(C(=O)NCc2ccccc2C#N)sc2ncnc(Nc3ccc(F)cc3OC3CCCNC3)c12` (centres unmarked) [Example 41], the IC50 came out at 0.031 µM.

`Cc1c(C(=O)NCC(=O)c2ccccc2)sc2ncnc(Nc3ccc(F)cc3OC3CCCNC3)c12` (centres unmarked) [Example 42]: the IC50 is 0.041 µM.

Regarding `Cc1c(C(=O)NCCNc2ccccc2)sc2ncnc(Nc3ccc(F)cc3OC3CCCNC3)c12` (centres unmarked) [Example 43], the IC50 amounted to 0.056 µM.

Regarding `Cc1c(C(=O)NCCOc2ccccc2)sc2ncnc(Nc3ccc(F)cc3OC3CCCNC3)c12` (centres unmarked) [Example 44], the IC50 stood at 0.064 µM.

As for `COc1ccc(CNC(=O)c2sc3ncnc(Nc4ccc(F)cc4OC4CCCNC4)c3c2C)cc1` (centres unmarked) [Example 45], the IC50 worked out at 0.036 µM.

`Cc1c(C(=O)NCCc2ccc(O)cc2)sc2ncnc(Nc3ccc(F)cc3OC3CCCNC3)c12` (centres unmarked) [Example 46]: the IC50 was 0.015 µM.

As for `Cc1c(C(=O)NCCS(=O)(=O)N(C)C)sc2ncnc(Nc3ccc(F)cc3OC3CCCNC3)c12` (centres unmarked) [Example 47], the IC50 was 0.051 µM.

On to `Cc1c(C(=O)NCC(C)(C)Cl)sc2ncnc(Nc3ccc(F)cc3OC3CCCNC3)c12` (centres unmarked) [Example 48], for which the IC50 is 0.075 µM.

With `Cc1c(C(=O)NCC(C)(C)O)sc2ncnc(Nc3ccc(F)cc3OC3CCCNC3)c12` (centres unmarked) [Example 49], the IC50 is 0.099 µM.

As for `Cc1c(C(=O)NCCOCCO)sc2ncnc(Nc3ccc(F)cc3OC3CCCNC3)c12` (centres unmarked) [Example 50], the IC50 is 0.072 µM.

As to `Cc1c(C(=O)NC[C@@H]2CCC(=O)N2)sc2ncnc(Nc3ccc(F)cc3OC3CCCNC3)c12` (some centres unmarked) [Example 51], the IC50 was found to be 0.16 µM.

For `CCN1CCC[C@@H]1CNC(=O)c1sc2ncnc(Nc3ccc(F)cc3OC3CCCNC3)c2c1C` (some centres unmarked) [Example 52], the IC50 stood at 0.13 µM.

For `Cc1c(C(=O)NCCC2CCCN2C)sc2ncnc(Nc3ccc(F)cc3OC3CCCNC3)c12` (centres unmarked) [Example 53], the IC50 was 0.046 µM.

Regarding `Cc1c(C(=O)NCC2CN(C)CCO2)sc2ncnc(Nc3ccc(F)cc3OC3CCCNC3)c12` (centres unmarked) [Example 55], the IC50 is 0.051 µM.

Consider `Cc1c(C(=O)NCCCc2ccncc2)sc2ncnc(Nc3ccc(F)cc3OC3CCCNC3)c12` (centres unmarked) [Example 56], for which the IC50 came to 0.049 µM.

`Cc1c(C(=O)NCc2cc(F)ccc2F)sc2ncnc(Nc3ccc(F)cc3OC3CCCNC3)c12` (centres unmarked) [Example 57]: the IC50 amounted to 0.043 µM.

Turning to `Cc1c(C(=O)NCc2cccc3ccccc23)sc2ncnc(Nc3ccc(F)cc3OC3CCCNC3)c12` (centres unmarked) [Example 58], the IC50 worked out at 0.064 µM.

In the case of `Cc1c(C(=O)NCc2ccc(Cl)c(F)c2)sc2ncnc(Nc3ccc(F)cc3OC3CCCNC3)c12` (centres unmarked) [Example 59], the IC50 worked out at 0.048 µM.

On to `Cc1c(C(=O)NCc2cccc3ccccc23)sc2ncnc(Nc3ccc(F)cc3OC3CCCNC3)c12` (centres unmarked) [Example 60], for which the IC50 worked out at 0.064 µM.

In the case of `Cc1c(C(=O)NCc2ccc3sccc3c2)sc2ncnc(Nc3ccc(F)cc3OC3CCCNC3)c12` (centres unmarked) [Example 61], the IC50 was 0.038 µM.

As to `Cc1c(C(=O)NCC(c2cccnc2)N(C)C)sc2ncnc(Nc3ccc(F)cc3OC3CCCNC3)c12` (centres unmarked) [Example 62], the IC50 worked out at 0.11 µM.

For the compound `Cc1c(C(=O)NCc2ccc(OC(C)C)cc2)sc2ncnc(Nc3ccc(F)cc3OC3CCCNC3)c12` (centres unmarked) [Example 63], the IC50 turned out to be 0.043 µM.

Regarding `Cc1c(C(=O)Nc2ccn(C)n2)sc2ncnc(Nc3ccc(F)cc3O[C@H]3CCCNC3)c12` [Example 64, 4-[4-Fluoro-2-((S)-piperidin-3-yloxy)-phenylamino]-5-methyl-thieno[2,3-d]pyrimidine-6-carboxylic acid (1-methyl-1H-pyrazol-3-yl)-amide], the IC50 turned out to be 0.021 µM.

With `Cc1c(C(N)=O)sc2ncnc(Nc3ccc(C(F)(F)F)cc3O[C@H]3CCCNC3)c12` [Example 65, 5-Methyl-4-[2-((S)-piperidin-3-yloxy)-4-trifluoromethyl-phenylamino]-thieno[2,3-d]pyrimidine-6-carboxylic acid amide], the IC50 came to 0.19 µM.

In the case of `Cc1c(C(N)=O)sc2ncnc(Nc3ccc(Cl)cc3O[C@H]3CCCNC3)c12` [Example 66, 4-[4-Chloro-2-((S)-piperidin-3-yloxy)-phenylamino]-5-methyl-thieno[2,3-d]pyrimidine-6-carboxylic acid amide], the IC50 was 0.01 µM.

In the case of `Cc1c(C(N)=O)sc2ncnc(Nc3ccc(C#N)cc3O[C@H]3CCCNC3)c12` [Example 67, 4-[4-Cyano-2-((S)-piperidin-3-yloxy)-phenylamino]-5-methyl-thieno[2,3-d]pyrimidine-6-carboxylic acid amide], the IC50 amounted to 0.046 µM.

For `Cc1ccc(Nc2ncnc3sc(C(N)=O)c(C)c23)c(O[C@H]2CCCNC2)c1` [Example 68, 4-[4-Methyl-2-((S)-piperidin-3-yloxy)-phenylamino]-5-methyl-thieno[2,3-d]pyrimidine-6-carboxylic acid amide], the IC50 was found to be 0.08 µM.

As to `Cc1c(C(N)=O)sc2ncnc(Nc3cccnc3O[C@H]3CCCNC3)c12` [Example 69, 5-Methyl-4-[2-((S)-piperidin-3-yloxy)-pyridin-3-ylamino]thieno[2,3-d]pyrimidine-6-carboxylic acid amide], the 50% inhibitory concentration (IC50) is 0.019 µM.

Consider `Cc1c(C(N)=O)sc2ncnc(Nc3ccc(F)cc3O[C@@H]3CCCNC3)c12` [Example 71, 4-[4-Fluoro-2-((R)-piperidin-3-yloxy)-phenylamino]-5-methyl-thieno[2,3-d]pyrimidine-6-carboxylic acid amide], for which the IC50 worked out at 0.089 µM.

As to `Cc1c(C(N)=O)sc2ncnc(Nc3ccc(F)cc3O[C@@H]3CCCN(Cc4ncon4)C3)c12` [Example 72, 4-[4-Fluoro-2-((R)-1-[1,2,4]oxadiazol-3-ylmethyl-piperidin-3-yloxy)-phenylamino]-5-methyl-thieno[2,3-d]pyrimidine-6-carboxylic acid amide], the half-maximal inhibitory concentration (IC50) came to 0.009 µM.

For `Cc1c(C(N)=O)sc2ncnc(Nc3ccc(F)cc3O[C@@H]3CCCN(CC(F)(F)F)C3)c12` [Example 73], the half-maximal inhibitory concentration (IC50) came to 0.005 µM.

As for `Cc1c(C(N)=O)sc2ncnc(Nc3ccc(F)cc3O[C@@H]3CCCN(CC(F)F)C3)c12` [Example 74, 4-{2-[(R)-1-(2,2-Difluoro-ethyl)-piperidin-3-yloxy]-4-fluoro-phenylamino}-5-methyl-thieno[2,3-d]pyrimidine-6-carboxylic acid amide], the IC50 was 0.003 µM.

Turning to `COCCN1CCC[C@@H](Oc2cc(F)ccc2Nc2ncnc3sc(C(N)=O)c(C)c23)C1` [Example 75], the IC50 was found to be 0.022 µM.

For `Cc1c(C(N)=O)sc2ncnc(Nc3ccc(F)cc3O[C@@H]3CCCN(C)C3)c12` [Example 76, 4-[4-Fluoro-2-((R)-1-methyl-piperidin-3-yloxy)-phenylamino]-5-methyl-thieno[2,3-d]pyrimidine-6-carboxylic acid amide], the IC50 stood at 0.043 µM.

For `Cc1c(C(N)=O)sc2ncnc(Nc3ccc(F)cc3O[C@@H]3CCCN(Cc4nccs4)C3)c12` [Example 78], the IC50 came out at 0.028 µM.

For `Cc1c(C(N)=O)sc2ncnc(Nc3ccc(F)cc3O[C@@H]3CCCN(CCC(F)(F)F)C3)c12` [Example 79], the IC50 amounted to 0.012 µM.
